One series relates to human erythrocytes. Put plainly: in vitro AAPH-induced erythrocyte hemolysis, percent inhibition by purified flavonoids. Format: cell-based. Details: level of protection compared with ascorbic acid: dose or concentration left out as unconfirmed. Particulars: for level of protection compared with ascorbic acid: Figure 3; for protection of human erythrocytes from free radical-induced hemolysis at lowest concentration: concentration as low as 2.5 mM; for protection against AAPH-induced erythrocyte hemolysis: concentrations 2.5 to 20 μM, 200 mM AAPH, 3 h. The text has this:
(§1) Influence of cocoa flavanols and procyanidins on free radical-induced human erythrocyte hemolysis QIN YAN ZHU1 , DEREK D. SCHRAMM1 , HEIDRUN B. GROSS1 , ROBERTA R. HOLT1 , SUN H. KIM3 , TOMOKO YAMAGUCHI4 , CATHERINE L. KWIK-URIBE5 , & CARL L. KEEN1,2 1 Department of Nutrition, University of California, One Shields Avenue, Davis, CA 95616-8669, 2 Internal Medicine, University of California, One Shields Avenue, Davis, CA 95616-8669, 3 Department of Food Service Management and Nutrition, Kongju National University, Republic of Korea, 4 Department of Food Science and Nutrition, Nara Women's University, Japan, and 5 Analytical & Applied Sciences, Mars Incorporated, Hackettstown, NJ, USA Abstract Cocoa can be a rich source of antioxidants including the flavan-3-ols, epicatechin and catechin, and their oligomers (procyanidins). While these flavonoids have been reported to reduce the rate of free radical-induced erythrocyte hemolysis in experimental animal models, little is known about their effect on human erythrocyte hemolysis. The major objective of this work was to study the effect of a flavonoid-rich cocoa beverage on the resistance of human erythrocytes to oxidative stress. A second objective was to assess the effects of select purified cocoa flavonoids, epicatechin, catechin, the procyanidin Dimer B2 and one of its major metabolites, 30 -O-methyl epicatechin, on free radical-induced erythrocyte hemolysis in vitro. Peripheral blood was obtained from 8 healthy subjects before and 1, 2, 4 and 8 h after consuming a flavonoid-rich cocoa beverage that provided 0.25 g/kg body weight (BW), 0.375 or 0.50 g/kg BW of cocoa. Plasma flavanol and dimer concentrations were determined for each subject. Erythrocyte hemolysis was evaluated using a controlled peroxidation reaction. Epicatechin, catechin, 30 -O-methyl epicatechin and (-)-epicatechin-(4b . 8)-epicatechin (Dimer B2) were detected in the plasma within 1 h after the consumption of the beverage. […] The duration of the lag time, which reflects the capacity of cells to buffer free radicals, was increased. […] Erythrocytes from subjects consuming flavonoid-rich cocoa show reduced susceptibility to free radical-induced hemolysis p , 0:05. Keywords: Cocoa, flavanol, membrane oxidation, erythrocyte,-catechin, 3 0 -O-methyl epicatechin Introduction Flavonoids are a diverse group of polyphenolic compounds occurring in fruit, vegetables, tea and red wine. Diets rich in these compounds have been associated with a reduced risk for cardiovascular disease (Knekt et al. 2002, Kris-Etherton et al. 2004, Mennen et al. 2004, Morton et al. 2000, Sagara et al. 2004, Sesso et al. 2003). Depending on their processing, cocoa and chocolate can be rich sources of flavonoids, particularly the subclass of oligomeric flavonoids known as procyanidins (Adamson et al. 1999, Sanchez-Rabaneda et al. 2003, Steinberg et al. 2003) (Figure 1). Flavanols and procyanidins isolated from cocoa and chocolate have received considerable attention over the last several years as potential cardiovascular protective agents with putative positive effects on platelet function, blood pressure regulation, nitric oxide production, oxidative defense and the immune system (Heiss et al. 2003, Maron, 2004; Fisher et al. 2003; Pearson et al. 2002, Sadik et al. 2003, Taubert et al. 2003, Wan et al. 2001). ISSN 1740-2522 print/ISSN 1740-2530 online q 2005 Taylor & Francis Group Ltd. DOI: 10.1080/17402520512331329514 Correspondence: Carl L. Keen, Department of Nutrition, University of California, One Shields Avenue, Davis, CA 95616-8669. Tel: 1 530 752 6331. Fax: 1 530 752 8966. E-mail: clkeen@ucdavis.edu Clinical & Developmental Immunology, March 2005; 12(1): 27-34 These compounds can modulate the actions of oxidant-responsive transcription factor NF-kB (Mackenzie et al. 2004), and diets rich in cocoa flavonoids may be associated with reductions in DNA oxidative damage (Orozco et al. 2003). […]

Series [1] is described as follows: plasma flavanol and dimer concentrations by HPLC after cocoa beverage. It is filed as in vivo, human. Particulars: for time by which detected in the plasma: after consumption of the cocoa beverage, human subjects; for concentration in human plasma reached: after high dose of cocoa (0.50 g/kg BW).
Source text: as §1

Series [2] is described as follows: antioxidant activity (preliminary, unpublished). The conditions noted are these: preliminary work, unpublished data.

In the case of `Oc1cc(O)c2c(c1)O[C@H](c1ccc(O)c(O)c1)[C@H](O)C2` [epicatechin, (-)-epicatechin], in the series on human erythrocytes, the “level of protection compared with ascorbic acid” value was “exceeded that of ascorbic acid”, the “protection of human erythrocytes from free radical-induced hemolysis at lowest concentration” value was “significantly protect” and the “protection against AAPH-induced erythrocyte hemolysis” value was “dose-dependent protection”. In the series with human erythrocytes (individual compounds in vitro), the “protection compared with Dimer B2” value is recorded as “stronger protection than Dimer B2”. For the same molecule, in series [1], the “time by which detected in the plasma” value is reported as no more than 1 h and the concentration in human plasma reached was determined as 2860 nM.
As to `O.Oc1cc(O)c2c(c1)O[C@H](c1ccc(O)c(O)c1)[C@@H](O)C2` [catechin], in the series on human erythrocytes, the “level of protection compared with ascorbic acid” value is given as “exceeded that of ascorbic acid”, the “protection of human erythrocytes from free radical-induced hemolysis at lowest concentration” value is “significantly protect” and the “protection against AAPH-induced erythrocyte hemolysis” value is “dose-dependent protection”. In series [1], the “time by which detected in the plasma” value is reported as no more than 1 h and the “concentration in human plasma reached” value was found to be 210 nm.
Consider `Oc1cc(O)c2c(c1)O[C@H](c1ccc(O)c(O)c1)[C@H](O)[C@H]2c1c(O)cc2c(c1O)C[C@@H](O)[C@@H](c1ccc(O)c(O)c1)O2` [Dimer B5, epicatechin-(4b . 6)-epicatechin], for which the “antioxidant activity compared with Dimer B2” value in series [2] was “more antioxidant activity than Dimer B2”.
“(-)-epicatechin-(4β > 8)epicatechin [Dimer B2]”: in the series on human erythrocytes, the “level of protection compared with ascorbic acid” value is on record as “exceeded that of ascorbic acid” and the “protection against AAPH-induced erythrocyte hemolysis” value is listed as “dose-dependent protection”. Besides, the “time by which detected in the plasma” value in series [1] is recorded as no more than 1 h.
Turning to `COc1cc([C@H]2Oc3cc(O)cc(O)c3C[C@H]2O)ccc1O` [3ʹ-O-methyl epicatechin], in the series on human erythrocytes, the “level of protection compared with ascorbic acid” value is recorded as “exceeded that of ascorbic acid”, the “protection of human erythrocytes from free radical-induced hemolysis at lowest concentration” value is recorded as “significantly protect” and the “protection against AAPH-induced erythrocyte hemolysis” value is listed as “dose-dependent protection”. In series [1], the “time by which detected in the plasma” value was no more than 1 h.

The values above are taken from article PMC2270722, “Influence of Cocoa Flavanols and Procyanidins on Free Radical-induced Human Erythrocyte Hemolysis” (Clinical and Developmental Immunology, 2005).
